Measurements taken from PubChem BioAssay (NCI).
“And” between values parts separate entries of the source, which are not always exact repeats. Equal entries are not always repeated.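 96-well plates; 48 h exposure; 5 concentrations. Endpoints by linear interpolation between flanking doses. Not reached: highest tested concentration assigned. The concentration for 50% growth inhibition is given as GI50. TGI marks complete inhibition of growth.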

Tests used:
Test in all cases: inhibition of tumour cell growth, NCI panel, 48 h
[1] = tested on: HOP-18 NSCLC
[2] = tested on: DU-145 prostate
[3] = tested on: NCI/ADR-RES ovarian
[4] = tested on: RXF-631 renal
[5] = tested on: M19-MEL melanoma
[6] = tested on: MDA-N
[7] = tested on: DLD-1 colon
[8] = tested on: BT-549 breast
[9] = tested on: XF 498 CNS

| SMILES | TGI [1] | TGI [2] | TGI [3] | TGI [4] | TGI [5] | TGI [6] | TGI [7] | TGI [8] | TGI [9] | GI50 [2] | GI50 [3] | GI50 [8] |
| --- | --- | --- | --- | --- | --- | --- | --- | --- | --- | --- | --- | --- |
| C/C(N=NC(=S)N(C)C)=C1\C=CC=CN1O | > 100 µM | > 100 µM | 21.1 µM | > 100 µM | > 100 µM | > 100 µM | > 21.2 µM | > 100 µM | – | – | – | – |
| O=C1[C@@H]2C(c3ccccc3F)=NO[C@@H]2C(=O)N1c1ccc(Cc2ccc(N3C(=O)[C@H]4C(c5ccccc5F)=NO[C@H]4C3=O)cc2)cc1 | > 100 µM | – | – | > 100 µM | > 100 µM | – | > 100 µM | – | > 100 µM | – | – | – |
| C=CC/C=C/C/C=C/CCCCCCCc1cccc(O)c1C(=O)O | 65.3 µM | – | – | > 100 µM | > 100 µM | – | > 100 µM | – | > 100 µM | – | – | – |
| O=C1CC2CCCC23CC2(CCN13)OCCO2 (stereo not given) | > 100 µM | – | – | > 100 µM | > 100 µM | – | > 100 µM | – | > 100 µM | – | – | – |
| CC(C)(C)c1cc(C(O)(C(F)(F)F)C(F)(F)F)c2c(c1)C(C(F)(F)F)(C(F)(F)F)OC(C(C)(C)C)N2 (stereo not given) | 9.34 µM | – | – | 19 µM | 12.9 µM | – | 16.5 µM | – | 1.84 µM | – | – | – |
| Nc1ccc2cc3ccc(N)cc3nc2c1 | 8.41 µM | 18.1 µM and 10 µM and 9.47 µM | 5.25 µM and 5.26 µM and 11.2 µM | 4.41 µM | 4.07 µM | 3.79 µM and 2.77 µM | 10.5 µM | 10.4 µM and 16.2 µM and 12 µM | 5.8 µM | 1450 nM | 1210 nM | 1910 nM |
| CCOC(=O)NC(=O)c1cn(CCCOC(=O)CCCCCCCCCCC(=O)OCCCn2cc(C(=O)NC(=O)OCC)c(=O)[nH]c2=O)c(=O)[nH]c1=O | > 100 µM | – | – | > 100 µM | > 100 µM | – | > 100 µM | – | > 100 µM | – | – | – |
| O=C(O)[C@H](NS(=O)(=O)c1ccc([N+](=O)[O-])cc1)c1ccccc1 | > 100 µM | – | – | > 100 µM | > 100 µM | – | > 100 µM | – | > 100 µM | – | – | – |
